Data taken from patent US20250197372A1 (priority 2020, published 2025).
Read-outs that look alike come from different tables or passages of the source.

Assays:
Assay type in all cases: biochemical
[1] = biological target: T1, recombinant alpha-glucosidase I (human full-length glucosidase I, Glu 1) (Homo sapiens, UniProt Q13724); test: Alpha-glucosidase I assay (Amplex Red glucose detection, synthetic trisaccharide substrate)
T1 construct: 6-His (C); made in house; host or cells: HEK-293T cells transduced with BacMam virus (virus raised in Sf9)
T1 sequence (Q13724 1-837): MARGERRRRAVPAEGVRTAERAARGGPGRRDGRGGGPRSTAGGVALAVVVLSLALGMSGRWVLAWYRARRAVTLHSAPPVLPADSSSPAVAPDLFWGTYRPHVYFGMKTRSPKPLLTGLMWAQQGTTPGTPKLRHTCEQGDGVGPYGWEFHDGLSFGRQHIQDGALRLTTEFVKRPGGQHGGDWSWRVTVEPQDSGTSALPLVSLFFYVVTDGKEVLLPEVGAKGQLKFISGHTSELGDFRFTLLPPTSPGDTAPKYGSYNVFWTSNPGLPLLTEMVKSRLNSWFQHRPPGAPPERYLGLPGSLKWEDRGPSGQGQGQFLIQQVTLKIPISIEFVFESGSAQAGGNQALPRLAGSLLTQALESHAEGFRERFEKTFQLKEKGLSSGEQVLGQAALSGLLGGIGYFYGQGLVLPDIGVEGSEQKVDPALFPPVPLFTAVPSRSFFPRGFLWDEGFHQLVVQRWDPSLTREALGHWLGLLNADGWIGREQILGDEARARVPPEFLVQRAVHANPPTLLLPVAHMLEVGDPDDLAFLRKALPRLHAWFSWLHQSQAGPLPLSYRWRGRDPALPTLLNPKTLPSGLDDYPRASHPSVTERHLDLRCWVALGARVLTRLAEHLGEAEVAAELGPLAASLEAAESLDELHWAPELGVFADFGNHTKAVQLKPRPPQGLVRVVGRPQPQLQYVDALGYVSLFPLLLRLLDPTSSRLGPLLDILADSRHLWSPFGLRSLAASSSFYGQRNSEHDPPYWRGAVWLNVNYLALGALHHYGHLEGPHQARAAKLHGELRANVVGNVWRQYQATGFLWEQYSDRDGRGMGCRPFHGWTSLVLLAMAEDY
Procedure, shortened: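 Compound dilution series incubated 60 min at 37° C with recombinant His-tagged human glucosidase I ([…]), after which trisaccharide substrate analog was added for 90 min at 37° C. Reaction quenched with 1.5M Tris pH 8; D-glucose detected by Amplex Red fluorescence, 560/590 nm. 4-PL curve fit of percent inhibition gave IC50.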

[2] = biological target: T2, recombinant alpha-glucosidase II (murine full-length glucosidase II, alpha and beta subunits, Glu 2) (Mus musculus, UniProt Q8BHN3); test: Alpha-glucosidase II assay (4-methylumbelliferyl-alpha-D-pyranoside substrate, fluorescence)
T2 construct: made in house; host or cells: HEK-293T cells transduced with BacMam viruses (75% alpha, 25% beta); protein harvested from culture supernatant
T2 sequence (O08795 15-521): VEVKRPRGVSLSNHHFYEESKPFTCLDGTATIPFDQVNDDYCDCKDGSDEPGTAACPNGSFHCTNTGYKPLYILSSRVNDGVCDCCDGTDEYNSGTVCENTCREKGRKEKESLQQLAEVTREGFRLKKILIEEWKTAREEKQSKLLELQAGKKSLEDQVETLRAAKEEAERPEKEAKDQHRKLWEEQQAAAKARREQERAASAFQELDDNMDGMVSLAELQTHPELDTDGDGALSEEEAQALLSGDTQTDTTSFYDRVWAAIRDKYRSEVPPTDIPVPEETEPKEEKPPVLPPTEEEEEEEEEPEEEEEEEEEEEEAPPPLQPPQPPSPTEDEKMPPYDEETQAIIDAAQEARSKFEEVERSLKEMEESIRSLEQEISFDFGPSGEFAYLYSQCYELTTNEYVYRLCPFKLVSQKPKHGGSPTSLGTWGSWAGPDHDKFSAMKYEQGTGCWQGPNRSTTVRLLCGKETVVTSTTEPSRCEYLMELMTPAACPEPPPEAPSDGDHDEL
T2 sequence (Q8BHN3 33-944): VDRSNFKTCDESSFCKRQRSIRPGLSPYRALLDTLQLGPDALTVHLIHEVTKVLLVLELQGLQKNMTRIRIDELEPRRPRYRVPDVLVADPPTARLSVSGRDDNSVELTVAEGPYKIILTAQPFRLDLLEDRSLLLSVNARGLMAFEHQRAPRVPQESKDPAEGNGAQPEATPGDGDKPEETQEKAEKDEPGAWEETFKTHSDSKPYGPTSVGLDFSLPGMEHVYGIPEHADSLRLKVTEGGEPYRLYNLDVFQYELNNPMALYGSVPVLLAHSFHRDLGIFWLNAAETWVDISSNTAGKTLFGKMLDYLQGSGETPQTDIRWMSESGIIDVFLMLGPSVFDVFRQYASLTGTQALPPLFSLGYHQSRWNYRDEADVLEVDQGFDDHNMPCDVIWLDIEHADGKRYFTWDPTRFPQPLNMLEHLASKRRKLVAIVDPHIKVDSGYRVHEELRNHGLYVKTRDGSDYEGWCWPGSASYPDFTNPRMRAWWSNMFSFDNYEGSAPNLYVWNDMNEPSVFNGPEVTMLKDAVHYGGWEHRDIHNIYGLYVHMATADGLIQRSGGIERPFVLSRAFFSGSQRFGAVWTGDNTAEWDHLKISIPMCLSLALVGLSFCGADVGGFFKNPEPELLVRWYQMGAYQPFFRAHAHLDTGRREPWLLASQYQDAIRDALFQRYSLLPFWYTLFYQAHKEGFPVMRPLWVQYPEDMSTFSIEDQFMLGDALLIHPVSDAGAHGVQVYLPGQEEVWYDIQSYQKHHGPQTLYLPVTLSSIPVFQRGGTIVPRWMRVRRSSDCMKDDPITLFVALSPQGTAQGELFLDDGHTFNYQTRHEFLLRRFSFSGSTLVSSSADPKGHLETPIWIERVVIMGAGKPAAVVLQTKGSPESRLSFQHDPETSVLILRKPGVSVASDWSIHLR

[3] = biological target: rat maltase (partially purified alpha-glucosidase from intestinal rat powder); test: Intestinal alpha-glucosidase assay, maltose substrate (Glucose GO Kit)
Procedure, shortened: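 Rat intestinal enzyme prep + test cpd dilutions, 60 min 37 °C; add maltose (maltase) or sucrose (sucrase), 30 min 37 °C; stop 90 °C 5 min. Glucose readout (glucose oxidase kit). IC50 from 4-PL fit of % inhibition vs conc.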

[4] = Glucosidase 2, read-out: Glu2 IC50
[5] = Glucosidase 1, read-out: Glu 1 IC50

| SMILES | IC50 [1] | IC50 [2, 4] | IC50 [3] | IC50 [1, 5] | IC50 [2] |
| --- | --- | --- | --- | --- | --- |
| Cc1cc(NCc2ccc(CN3C[C@H](O)[C@@H](O)[C@H](O)[C@H]3CO)cc2)cc(-c2cccnn2)c1 [Compound 1052, (2R,3R,4R,5S)-2-(hydroxymethyl)-1-{[4-({[3-methyl-5-(pyridazin-3-yl)phenyl]amino}methyl)phenyl]methyl}piperidine-3,4,5-trio] | 73 nM | 179 nM | 14 nM |  |  |
| OC[C@@H]1[C@@H](O)[C@H](O)[C@@H](O)CN1Cc1ccc(CNc2cc(-c3ncccn3)cc(C3CC3)c2)cc1 [Compound 1013, (2R,3R,4R,5S)-1-{[4-({[3-cyclopropyl-5-(pyrimidin-2-yl)phenyl]amino}methyl)phenyl]methyl}-2-(hydroxymethyl)piperidine-3,4,5-triol] |  | 153 nM | 5 nM | 53 nM |  |
| N#Cc1cc(NCc2cccc(CN3C[C@H](O)[C@@H](O)[C@H](O)[C@H]3CO)c2)cc(C2=COCCO2)c1 [Compound 1044, 3-(5,6-dihydro-1,4-dioxin-2-yl)-5-{[(3-{[(2R,3R,4R,5S)-3,4,5-trihydroxy-2-(hydroxymethyl)piperidin-1-yl]methyl}phenyl)methyl]amino}benzonitrile] | 3 nM | 2670 nM | < 1 nM |  |  |
| COC(OC)c1cc(NCCCCCCN2C[C@H](O)[C@@H](O)[C@H](O)[C@H]2CO)cc(-c2ncccn2)c1 [Compound 1124, (2R,3R,4R,5S)-1-(6-{[3-(dimethoxymethyl)-5-(pyrimidin-2-yl)phenyl]amino}hexyl)-2-(hydroxymethyl)piperidine-3,4,5-triol] |  | 18 nM | 23 nM | 513 nM |  |
| [N-]=[N+]=Nc1ccc(NCC/C=C/CCN2C[C@H](O)[C@@H](O)[C@H](O)[C@H]2CO)c([N+](=O)[O-])c1 [Compound 1260, (2R,3R,4R,5S)-1-[(3E)-6-[(4-azido-2-nitrophenyl)amino]hex-3-en-1-yl]-2-(hydroxymethyl)piperidine-3,4,5-triol] | 136 nM |  | < 1 nM |  | 15 nM |
| N#Cc1cc(NCCCCCCN2C[C@H](O)[C@@H](O)[C@H](O)[C@H]2CO)cc(-c2ncccn2)c1 [Compound 1130, 3-(pyrimidin-2-yl)-5-({6-[(2R,3R,4R,5S)-3,4,5-trihydroxy-2-(hydroxymethyl)piperidin-1-yl]hexyl}amino)benzonitrile] |  | 6 nM | 4 nM | 244 nM |  |
| Cc1cc(NCc2cccc(CN3C[C@H](O)[C@@H](O)[C@H](O)[C@H]3CO)c2)cc(-c2ncccn2)c1 [Compound 1035, (2R,3R,4R,5S)-2-(hydroxymethyl)-1-{[3-({[3-methyl-5-(pyrimidin-2-yl)phenyl]amino}methyl)phenyl]methyl}piperidine-3,4,5-triol] | 44 nM | 66500 nM | 49 nM |  |  |
| O=Cc1cc(NCCCCCCN2C[C@H](O)[C@@H](O)[C@H](O)[C@H]2CO)cc(-c2ncccn2)c1 [Compound 1129, 3-(pyrimidin-2-yl)-5-({6-[(2R,3R,4R,5S)-3,4,5-trihydroxy-2-(hydroxymethyl)piperidin-1-yl]hexyl}amino)benzaldehyde] |  | 7 nM | 5 nM | 148 nM |  |
| COc1cc(NCCCCCCN2C[C@H](O)[C@@H](O)[C@H](O)[C@H]2CO)cc(C2CCCO2)c1 (stereo partly drawn) [Compound 1146, (2R,3R,4R,5S)-2-(hydroxymethyl)-1-(6-{[3-methoxy-5-(oxolan-2-yl)phenyl]amino}hexyl)piperidine-3,4,5-triol] |  | 15 nM | 23 nM | 511 nM |  |
| CS(=O)(=O)c1cc(NCc2cccc(CN3C[C@H](O)[C@@H](O)[C@H](O)[C@H]3CO)c2)cc(-c2cccnn2)c1 [Compound 1040, (2R,3R,4R,5S)-2-(hydroxymethyl)-1-{[3-({[3-methanesulfonyl-5-(pyridazin-3-yl)phenyl]amino}methyl)phenyl]methyl}piperidine-3,4,5-triol] | 17 nM |  | 38 nM |  | 4610 nM |
| COc1cc(CN2CCCO2)cc(NCCCCCCN2C[C@H](O)[C@@H](O)[C@H](O)[C@H]2CO)c1 [Compound 1182, (2R,3R,4R,5S)-2-(hydroxymethyl)-1-[6-({3-methoxy-5-[(1,2-oxazolidin-2-yl)methyl]phenyl}amino)hexyl]piperidine-3,4,5-triol] |  | 2 nM | 26 nM | 47 nM |  |
| COc1cc(NCCCCCCN2C[C@H](O)[C@@H](O)[C@H](O)[C@H]2CO)cc(-c2ccccc2)c1 [Compound 1150, (2R,3R,4R,5S)-2-(hydroxymethyl)-1-[6-({5-methoxy-[1,1′-biphenyl]-3-yl}amino)hexyl]piperidine-3,4,5-triol] |  | < 1 nM | < 1 nM | 80 nM |  |
| O=[N+]([O-])c1cc(N2CCOCC2)ccc1NCc1cccc(CN2C[C@H](O)[C@@H](O)[C@H](O)[C@H]2CO)c1 [Compound 1067, (2R,3R,4R,5S)-2-(hydroxymethyl)-1-{[3-({[4-(morpholin-4-yl)-2-nitrophenyl]amino}methyl)phenyl]methyl}piperidine-3,4,5-triol] | 99 nM | 12800 nM | 81 nM |  |  |
| COc1cc(C#N)cc(NCCc2ccc(CCN3C[C@H](O)[C@@H](O)[C@H](O)[C@H]3CO)cc2)c1 [Compound 1133, 3-methoxy-5-{[2-(4-{2-[(2R,3R,4R,5S)-3,4,5-trihydroxy-2-(hydroxymethyl)piperidin-1-yl]ethyl}phenyl)ethyl]amino}benzonitrile] |  | 5 nM | 97 nM | 1280 nM |  |
| Cc1cc(NCc2cccc(CN3C[C@H](O)[C@@H](O)[C@H](O)[C@H]3CO)n2)cc(-c2ccc[nH]2)c1 [Compound 1335, (2R,3R,4R,5S)-2-(hydroxymethyl)-1-{[6-({[3-methyl-5-(1H-pyrrol-2-yl)phenyl]amino}methyl)pyridin-2-yl]methyl}piperidine-3,4,5-triol] | 966 nM |  | 231 nM |  | > 100000 nM |
| [N-]=[N+]=Nc1ccc(NCc2cc(CCN3C[C@H](O)[C@@H](O)[C@H](O)[C@H]3CO)cs2)c([N+](=O)[O-])c1 [Compound 1174, (2R,3R,4R,5S)-1-[2-(5-{[(4-azido-2-nitrophenyl)amino]methyl}thiophen-3-yl)ethyl]-2-(hydroxymethyl)piperidine-3,4,5-triol] |  | < 1 nM | < 1 nM | 531 nM |  |
| CN(C)C(=O)c1cc(NCCCCCCN2C[C@H](O)[C@@H](O)[C@H](O)[C@H]2CO)cc(-c2ncccn2)c1 [Compound 1126, N,N-dimethyl-3-(pyrimidin-2-yl)-5-({6-[(2R,3R,4R,5S)-3,4,5-trihydroxy-2-(hydroxymethyl)piperidin-1-yl]hexyl}amino)benzamide] |  | 35 nM | 23 nM | 550 nM |  |
| OC[C@@H]1[C@@H](O)[C@H](O)[C@@H](O)CN1CCCCCCNc1cc(-c2ncccn2)cc(C(F)(F)F)c1 [Compound 1131, (2R,3R,4R,5S)-2-(hydroxymethyl)-1-(6-{[3-(pyrimidin-2-yl)-5-(trifluoromethyl)phenyl]amino}hexyl)piperidine-3,4,5-triol] |  | 3 nM | 8 nM | 232 nM |  |
| COc1cc(NCCCCCCN2C[C@H](O)[C@@H](O)[C@H](O)[C@H]2CO)cc(-c2cnccn2)c1 [Compound 1197, (2R,3R,4R,5S)-2-(hydroxymethyl)-1-(6-{[3-methoxy-5-(pyrazin-2-yl)phenyl]amino}hexyl)piperidine-3,4,5-triol] |  | 1 nM | 9 nM | 140 nM |  |
| CS(=O)(=O)c1cc(NCc2ccc(CN3C[C@H](O)[C@@H](O)[C@H](O)[C@H]3CO)cc2)cc(-c2cccnn2)c1 [Compound 1058, (2R,3R,4R,5S)-2-(hydroxymethyl)-1-{[4-({[3-methanesulfonyl-5-(pyridazin-3-yl)phenyl]amino}methyl)phenyl]methyl}piperidine-3,4,5-triol] | 21 nM | 114 nM | 8 nM |  |  |
| OC[C@@H]1[C@@H](O)[C@H](O)[C@@H](O)CN1CCCCCCNc1cc(-c2ncccn2)cc(C2CC2)c1 [Compound 1009, (2R,3R,4R,5S)-1-(6-{[3-cyclopropyl-5-(pyrimidin-2-yl)phenyl]amino}hexyl)-2-(hydroxymethyl)piperidine-3,4,5-triol] |  | 17 nM | 7 nM | 163 nM |  |
